Assay results: patent publication US6737057B1, “Compounds, compositions and methods for the endocytic presentation of immunosuppressive factors” (The University of Tennessee Research Corporation, priority 1997, dated 2004)
Where “and” joins values, the source holds several entries; their conditions need not be identical. Equal values may be shown once. Entries after “also recorded” stand apart in the source; their conditions may differ.

T1: I-A^S class II molecules (Mus musculus, UniProt P06345+P14437)
T1 sequence (P14437 1-233): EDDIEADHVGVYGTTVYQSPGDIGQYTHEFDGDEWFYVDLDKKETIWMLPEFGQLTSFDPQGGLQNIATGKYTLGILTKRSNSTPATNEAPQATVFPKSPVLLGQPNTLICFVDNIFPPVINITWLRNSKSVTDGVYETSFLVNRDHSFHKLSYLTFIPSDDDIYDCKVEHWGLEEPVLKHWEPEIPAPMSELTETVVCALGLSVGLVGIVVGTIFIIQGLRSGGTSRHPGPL
T1 sequence (P06345 28-263): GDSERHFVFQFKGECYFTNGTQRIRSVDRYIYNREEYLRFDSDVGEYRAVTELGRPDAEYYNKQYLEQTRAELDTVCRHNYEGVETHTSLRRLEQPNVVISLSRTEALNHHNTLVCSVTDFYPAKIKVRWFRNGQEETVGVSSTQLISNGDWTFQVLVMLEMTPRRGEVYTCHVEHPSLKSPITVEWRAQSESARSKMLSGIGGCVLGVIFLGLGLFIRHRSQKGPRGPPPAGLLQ

B1: proteolipid protein (protein, UniProt P60203 2-277, looked up)
Myelin proteolipid protein: GLLECCARCLVGAPFASLVATGLCFFGVALFCGCGHEALTGTEKLIETYFSKNYQDYEYLINVIHAFQYVIYGTASFFFLYGALLLAEGFYTTGAVRQIFGDYKTTICGKGLSATVTGGQKGRGSRGQHQAHSLERVCHCLGKWLGHPDKFVGITYALTVVWLLVFACSAVPVYIYFNTWTTCQSIAFPSKTSASIGSLCADARMYGVLPWNAFPGKVCGSNLLSICKTAEFQMTFHLFIAAFVGAAATLVSLLTFMIAATYNFAVLKLMGRGTKF
notes: native proteolipid protein purified from rat brain

Key:
[1] = test system: PLP1-specific T cell hybridoma 4E3; assay: T cell hybridoma activation assay (IL-2 production), 4E3; type: cell-based, mouse; conditions: for IL-2 production by T cell hybridoma 4E3: SJL splenocyte APCs, 0.1 μM Ig chimeras, 1 μM peptides, 1.7 μM PLP, FIG. 3A; for EC50: 4E3 hybridoma, irradiated SJL/J splenocytes, IL-2 by HT-2 3H-thymidine incorporation, FIG. 4, read-out: stimulation to half the maximum level
Method: (§1) PLP1-specific T cell hybridomas 5B6 and 4E3 and the IL-2 dependent HT-2 T helper cells were obtained from The Eunice Kennedy Shriver Center, Waltham, Mass. The 5B6 and 4E3 T cells recognize the peptide PLP1 in association with 1-A^S class II MHC and produces IL-2 when incubated with it as reported by Kuchroo et al., J. Immunol. 153:3326-3336, 1994 which is incorporated herein by reference. Conversely, Kuchroo et al. report that when stimulated with PLP1 and then with PLP-LR both 5B6 and 4E3 cells no longer produce IL-2.
(§2) Using substantially the same technique as Kuchroo et al., activation of the T cell hybridomas for various agonists was performed as follows. Irradiated (3,000 rads) splenocytes from SJL mice were used as antigen presenting cells (APCs) for this Example. The irradiated splenocytes were incubated in 96-well round bottom plates (5×10^5 cells/well/50 μl) with graded concentrations of antigens (100 μl/well). After one hour, T cell hybridomas, i.e. 5B6 of 4E3 (5×10^4 cells/well/50 μl) were added and the culture was continued overnight. Activation (or proliferation) of the T cells was assessed by measuring production of IL-2 in the culture supernatant. This was done by ^3H-thymidine incorporation using the IL-2 dependent HT-2 cells. That is, when IL-2 is present (i.e. secreted by activated T cells) the HT-2 cells proliferate, incorporating labeled thymidine from the surrounding media.
(§3) The culture media used to carry out these assays was DMEM supplemented with 10% FBS, 0.05 mM 2-mercaptoethenol, 2 mM glutamine, 1 mM sodium puryvate and 50 μg/mL gentamycin sulfate. Briefly, culture supernatants (100 μl/well) were incubated with HT-2 cells (1×10^4 cells/well/100 μl) in 96-well flat bottom plates for 24 hours. Subsequently 1 μCi ^3H-thymidine was added per well and the culture was continued for an additional 12-14 hours. The cells were then harvested on glass fiber filters and the non incorporated ^3H-thymidine was washed away. Incorporated thymidine was then counted using the trace 96 program and an Inotech β counter. It will be appreciated that those wells containing higher levels of IL-2 (secreted by the activated T cell hybridoma lines) will induce higher levels of HT-2 cell proliferation and register increased levels of ^3H-thymidine incorporation.
Specifically, different concentrations of the three antigens (i.e. agonists) were incubated with irradiated SJL/J splenocytes which were subsequently associated with 4E3 T cell hybridomas. IL-2 production was measured by ^3H-thymidine incorporation using the IL-2 dependent HT-2 cells as described in Example VI. Each point represents the mean of triplicates.

[2] = test system: PLP1-specific T cell hybridoma 5B6; assay: T cell hybridoma activation assay (IL-2 production), 5B6; type: cell-based, mouse; conditions: SJL splenocyte APCs; 0.1 μM Ig chimeras, 1 μM peptides, 1.7 μM PLP; FIG. 3B
Method: as §1, §2, §3

4E3 T cell hybridomas = assay: Prepulsed proliferation assay: antagonism of agonist mediated T cell activation; type: cell-based, mouse; parameters: key to T cell antagonism, Stimulator (Agonist) PLP1 / T cell antagonism, Stimulator (Agonist) PLP / T cell antagonism, Stimulator (Agonist) Ig-PLP1: +: a plus sign indicates inhibition of IL-2 production and therefore antagonism; −: a minus sign indicates little or no inhibition of IL-2 production and therefore little or no antagonism; conditions: for antagonism of Ig-PLP1 mediated T cell activation (IL-2 production): agonist 0.05 μM Ig-PLP1, FIG. 5B; for control thymidine incorporation (agonist, no antagonist): 1 μM PLP1 peptide, 0.05 μM Ig-PLP1 or 7 μM PLP, background not deducted
Method: Irradiated (3,000 rads) SJL splenocytes (used as APCs) were incubated in 96-well round bottom plates (5×10^5 cells/well/50 μl) with the selected agonist (1 μM PLP1 peptide, 0.05 μM Ig-PLP1 or 7 μM PLP) and various concentrations of antagonist (100 μl/well) for 1 hour. Subsequently, 4E3 T cell hybridomas (5×10^4 cells/well/50 μl) were added and the culture was continued overnight. IL-2 production in the supernatant, determined as in Example VI using HT-2 cells, was used as measure of T cell activation.
Cpm values obtained when the APCs were incubated with the agonist but no antagonist was used as control thymidine incorporation. This value was 7,503±1,302 for Ig-PLP1; 31,089±3,860 for PLP1 peptide; and 8,268±915 for PLP. The cpm value obtained when the APCs were incubated with no agonist or antagonist was used as background (BG). This value was 1,560±323 for Ig-PLP1; 2,574±290 for PLP1 peptide; and 2,127±177 for PLP. The percent control thymidine incorporation was calculated as follows: [(cpm obtained in the presence of test antagonist)−(BG)]/[(cpm control thymidine incorporation value)−(BG)]. Each point represents the mean of triplicates.

PLP1 specific T cells = assay: In vivo inhibition of T cell response to PLP1 on co-administration with Ig-PLP1; parameters: species or system SJL mice
Method: Mice were co-immunized with mixtures of either 50 μg Ig-PLP1 and 150 μg Ig-PLP-LR or 50 μg Ig-PLP1 combined with 150 μg Ig-W. In particular, individual mice from three groups (4 mice per group) were injected sc, as in Example X with a 200 μl mixture (PBS/CFA, 1:1 v/v) containing one of the following mixtures: 50 μg Ig-PLP1 and 150 μg Ig-PLP-LR; 50 μg Ig-PLP1 and 150 μg Ig-W; or Ig-PLP1 and 100 μg PLP-LR peptide. Splenic and lymph node T cell responses were analyzed at day 10 post immunization using the protocol set forth in Example X. The lymph node cells were assayed at 4×10^5 cells/well and the spleen cells at 10×10^5 cells/well. The agonist ligand was PLP1 at 15 μg/mL. Results for the lymph node and spleen cells, shown in FIGS. 8A and 8B respectively and summarized in Table 2 below, represent the mean±SD of triplicates after deduction of background cpm obtained with no agonist in the media.
(mean cpm of triplicates obtained with PLP1 stimulation−mean cpm triplicate BG)/(mean cpm of triplicates obtained with PPD−mean cpm triplicate BG)×100

PLP-LR specific T cells = assay: In vivo T cell response to PLP-LR after co-administration with Ig-PLP1; parameters: species or system SJL mice; conditions: co-administered with Ig-PLP1; lymph node and spleen cells, PLP-LR 15 μg/mL; FIG. 9
Method: Lymph node and spleen cells were obtained in the same manner as set forth in Example X following co-administration of Ig-PLP1 and Ig-PLP-LR. Proliferative responses in individual mice were also measured using the methods set out in the previous Example following in vitro stimulation with either free PLP1 peptide or PLP-LR peptide at 15 μg/mL. The results of the assays using lymph node and spleen cells are detailed in FIGS. 9A and 9B respectively.

I-A^S class II molecules = target: T1, I-A^S class II molecules; conditions: cited from earlier work
T cell hybridomas = conditions: reported by Kuchroo et al.; cited from earlier work
SJL mice = conditions: cited from earlier work

Row | Molecule | IL-2 production by T cell hybridoma 4E3 [1] | IL-2 production by T cell hybridoma 5B6 [2] | antagonism of Ig-PLP1 mediated T cell activation (IL-2 production) (4E3 T cell hybridomas) | IC50 (4E3 T cell hybridomas; agonist 1 μM PLP1 peptide, FIG. 5A, read-out: Inhibition of IL-2 production to half the maximum level (60% control thymidine incorporation)) | antagonism of native PLP mediated T cell activation (IL-2 production) (4E3 T cell hybridomas; agonist 7 μM PLP, FIG. 5C) | T cell antagonism, Stimulator (Agonist) Ig-PLP1 (4E3 T cell hybridomas; agonist Ig-PLP1, summary of FIG. 5) | T cell antagonism, Stimulator (Agonist) PLP1 (4E3 T cell hybridomas; agonist PLP1, summary of FIG. 5) | T cell antagonism, Stimulator (Agonist) PLP (4E3 T cell hybridomas; agonist PLP, summary of FIG. 5) | PLP1/PPD (%) (PLP1 specific T cells; co-administered sc with 50 μg Ig-PLP1 (150 μg Ig or 100 μg peptide), day 10, individual mice 1-4, PLP1 specific relative to PPD specific proliferation, listed as PLP-LR peptide) | reduction of immune response to PLP1 peptide (PLP1 specific T cells; co-administered with Ig-PLP1, lymph node and spleen cells, FIG. 8) | T cell response to PLP-LR (PLP-LR specific T cells) | binding to I-A^S class II molecules (I-A^S class II molecules) | effect on IL-2 production of T cell hybridomas stimulated with PLP1 (T cell hybridomas) | EC50 [1] | control thymidine incorporation (agonist, no antagonist) (4E3 T cell hybridomas) | encephalitogenic activity / EAE induction (SJL mice) | antagonism of PLP1 peptide mediated T cell activation (IL-2 production) (4E3 T cell hybridomas; agonist 1 μM PLP1 peptide, FIG. 5A)
1 | HSLGKLLGRPNKF [PLP-LR, analog of PLP1 in which Trp144 and His147 were replaced with Leu and Arg] | did not stimulate 5B6 and 4E3 to produce significant levels of IL-2 | did not stimulate 5B6 and 4E3 to produce significant levels of IL-2 | did not show any significant antagonism; also recorded: failed to inhibit T cell activation | 9000 nM | failed to inhibit T cell activation | − | + | − | 93% and 100% and 81% and 91% | no indication that the PLP1 response was reduced; also recorded: no evident reduction in the proliferative response to PLP1 | induction of PLP-LR-specific response | bind well | inhibits IL-2 production |  |  |  | 
2 | HSLGKWLGHPNKF [PLP1, a peptide fragment of PLP comprising aa residues 139-151] | substantial levels of IL-2 | substantial levels of IL-2 |  |  |  |  |  |  |  |  |  | bind well |  | 600 nM | 31,089±3,860 cpm | encephalitogenic | 
3 | NTWTTCQSIAFPSK [PLP2, a peptide fragment of PLP comprising aa residues 178-191] | did not induce the production of IL-2 | did not induce the production of IL-2 | did not show any significant antagonism |  |  |  |  |  |  |  |  | binds |  |  |  | induces EAE | antagonist effects were not observed
4 | B1 | substantial levels of IL-2 | substantial levels of IL-2 |  |  |  |  |  |  |  |  |  |  |  | 500 nM | 8,268±915 cpm |  | 
